Converted amounts (≈) assume the structure as drawn. Where only a bound is given, the exact number is not on record here.

Experiment [1] can be described thus: Inhibition of gastrulation in starfish embryo. It is filed as functional. Particulars: Marthasterias glacialis.
Experiment [2] deals with Human immunodeficiency virus. Briefly: Antiviral activity agianst HIV assessed as viral growth inhibition. As to conditions: Human immunodeficiency virus 1. It is filed as functional, organism-based.
Experiment [3] can be described thus: Inhibition of Staphylococcus tyrS using tyrosine as substrate preincubated for 10 mins by substrate addition and measured after 2 hrs. Further details: species or system Staphylococcus sp.
The test system of experiment [4] is Staphylococcus aureus. Briefly: Antibacterial activity methicillin-resistant Staphylococcus aureus ATCC 43300 assessed as bacterial growth inhibition by microdilution method. Format: functional.
In experiment [5] the test system is Staphylococcus aureus. Briefly: Antibacterial activity against Staphylococcus aureus NBRC12732 assessed as bacterial growth inhibition. Format: functional.
In the next experiment the test system is KB. Briefly: Cytotoxicity against human KB cells assessed as reduction in cell viability. Particulars: read-out: ED50 (the source's name). It is filed as functional.
For experiment [6], the target named is NAD(P)H dehydrogenase [quinone] 1 (Mus musculus) (UniProt Q64669). Briefly: Activation of QR1 in mouse hepatoma cells incubated for 48 hrs by MTT assay. Particulars: Hepatoma cell line, filed as activator. It is filed as cell-based. (Tetrazolium dyes change colour on reduction, which living cells bring about.)
Experiment [7] in a line: Upregulation of glutathione level in mouse Hepa1c1c7 cells assessed as drug concentration required for double induction incubated for 48 hrs in presence of NADPH by Ellman method. Format: functional. (DTNB colorimetry detects thiols as they appear.)

NAD(P)H dehydrogenase [quinone] 1 (Mus musculus), sequence (Q64669 whole entry): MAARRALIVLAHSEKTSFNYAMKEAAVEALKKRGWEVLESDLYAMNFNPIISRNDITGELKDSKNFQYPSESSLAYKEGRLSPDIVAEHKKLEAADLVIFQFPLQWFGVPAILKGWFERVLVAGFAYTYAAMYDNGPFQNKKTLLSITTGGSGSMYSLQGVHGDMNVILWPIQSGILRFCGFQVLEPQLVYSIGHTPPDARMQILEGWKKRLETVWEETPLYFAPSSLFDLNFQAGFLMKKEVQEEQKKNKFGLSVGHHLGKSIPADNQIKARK

In turn, `C=C/C=C/[C@H]1O[C@@](O)([C@@H](C)[C@H](O)[C@H](C)[C@H]2OC(=O)/C(OC)=C/C(C)=C/[C@@H](C)[C@@H](O)[C@@H](C)C/C(C)=C/C=C/[C@@H]2OC)C[C@@H](OC(=O)/C=C/C(=O)NC2=C(O)CCC2=O)[C@@H]1C` had an MIC in experiment [1] of 0.01 µg/mL (≈ 0.0121 µM). With `CC(C)CCCCCCCC[C@@H](O)CC(=O)N[C@@H](CCC(=O)O)C(=O)N[C@@H](CC(C)C)C(=O)N[C@H](CC(C)C)C(=O)N[C@H](C(=O)N[C@@H](CC(=O)O)C(=O)N[C@H](CC(C)C)C(=O)N[C@@H](CC(C)C)C(=O)O)C(C)C`, the IC50 in experiment [2] is 5.3 µM.

On to `N[C@@H](Cc1ccc(O)cc1)C(=O)N[C@H](C(=O)O)[C@H]1[C@H](O)[C@]2(O)CO[C@@H]([C@@H]2O)N1O`, for which, in experiment [3], the IC50 was less than 0.001 µM. In the case of `CNC1=CC(=O)c2c(cnc(C)c2C)C1=O` [MANSOURAMYCIN A], in the experiment with Staphylococcus aureus [4], the MIC is 8 µg/mL.

For the molecule `C[C@H]1CC[C@@H]2[C@H](C=C[C@H]3[C@H](C)/C=C/C[C@]4(C)C=C(CO)[C@H](C[C@@H](C)O)C[C@]45OC(=O)C(=C5O)C(=O)[C@@]23C)C1` [MAKLAMICIN], the MIC in the experiment on Staphylococcus aureus [5] worked out at 13 µg/mL (≈ 24.8 µM). In turn, `C=C/C=C/[C@H]1O[C@@](O)([C@@H](C)[C@H](O)[C@H](C)[C@H]2OC(=O)/C(OC)=C/C(C)=C/[C@@H](C)[C@@H](O)[C@@H](C)C/C(C)=C/C=C/[C@@H]2OC)C[C@@H](O)[C@@H]1C` showed an MIC in experiment [1] of 0.01 µg/mL (≈ 0.0158 µM). As to `CC1=C[C@@]2(C)C/C=C/[C@@H](C)[C@@H]3C=C[C@@H]4C[C@@H](C)CC[C@H]4[C@]3(C)C(=O)C3=C(O)[C@@]2(C[C@H]1C[C@@H](C)O)OC3=O`, in the experiment on Staphylococcus aureus [5], the MIC is 1.6 µg/mL (≈ 3.15 µM).

Regarding `COc1n/c(=C\c2ccccc2)c(=O)[nH]/c1=C\c1ccccc1`, in the experiment with KB, the EC50 worked out at 0.94 µg/mL (≈ 3.09 µM). On to `CC[C@H]1C[C@@H](C)C(=O)/C=C/[C@]2(C)O[C@H]2[C@H](C)[C@@H](CC)OC(=O)C[C@@H](O)[C@H](C)[C@H]1O[C@@H]1O[C@@H](C)[C@H](O)[C@@H](O)[C@H]1O`, for which the CD in experiment [6] stood at 10.1 µM; in experiment [7], 27.7 µM. `CCC(C)CCCCCCCC[C@@H](O)CC(=O)N[C@@H](CCC(=O)O)C(=O)N[C@@H](CC(C)C)C(=O)N[C@H](CC(C)C)C(=O)N[C@H](C(=O)N[C@@H](CC(=O)O)C(=O)N[C@H](CC(C)C)C(=O)N[C@@H](CC(C)C)C(=O)O)C(C)C` (stereo partly specified): the IC50 in experiment [2] worked out at 5.3 µM.

For orientation: MIC means the lowest concentration that inhibits growth of the organism. One may read the IC50 as the concentration that gives 50% inhibition.

(Values after ChEMBL document CHEMBL5137056, “Micromonospora: A Prolific Source of Bioactive Secondary Metabolites with Therapeutic Potential” (J Med Chem, 2022).)
